Where “and” joins values, the source holds several entries; their conditions need not be identical. Equal entries are not always repeated. Where two headings read alike, the source gives them in different places.
Key:
K. pneumoniae EN0436 = assay: MIC, colistinR; type: cell-based; settings: Klebsiella pneumoniae, read-out: MIC
[1] = test system: Helicobacter pylori APV00918; assay: MIC; type: cell-based; settings: Helicobacter pylori, APV00918, combination FdUrd+trimethoprim+uridine, Table 22A
Description: (§1) Inhibition of Heliobacter is important in view of increasing resistance and its association to gastric cancer.

K. pneumoniae EN0437 = assay: MIC, colistinR; type: cell-based; settings: Klebsiella pneumoniae, read-out: MIC
K. pneumoniae EN010 = assay: MIC, WT; type: cell-based, Klebsiella pneumoniae; settings: Klebsiella pneumoniae, read-out: MIC
K. oxytoca EN0392 = assay: MIC; type: cell-based; settings: Klebsiella oxytoca
K. pneumoniae EN0262 = assay: MIC, ESBL (+), KPC+; type: cell-based
K. pneumoniae EN0233 = assay: MIC; type: cell-based; settings: Klebsiella pneumoniae, read-out: MIC
E. coli strain no 2 = assay: MIC vs E. coli LMG 15862, penicillin resistant; settings: Escherichia coli
S. typhimurium EN0466 = assay: MIC; type: cell-based; settings: Salmonella enterica
P. aeruginosa EN0422 = assay: MIC; type: cell-based, Pseudomonas aeruginosa; settings: Pseudomonas aeruginosa, read-out: MIC
P. aeruginosa EN004 = assay: MIC, WT (EN004 = EN0004); type: cell-based, Pseudomonas aeruginosa
E. coli EN0138 = assay: MIC, ESBL (CTX-M-9); type: cell-based; settings: Escherichia coli, EN0138, combination AZT+trimethoprim+uridine, Table 17B; read-out: MIC
K. pneumoniae EN0142 = assay: MIC, OXA-48, CTX-M-15; type: cell-based; settings: Klebsiella pneumoniae, EN0142, combination didanosine+trimethoprim+uridine, Table 20
K. pneumoniae EN0143 = assay: MIC, ESBL (SHV-12); type: cell-based; settings: Klebsiella pneumoniae, read-out: MIC
E. coli = assay: Murine peritonitis model; type: in vivo, mice; parameters: score at sampling: scale not given here
[2] = test system: Helicobacter pylori ATTC43504; assay: MIC; type: cell-based; settings: Helicobacter pylori, Table 22A, read-out: MIC
Description: as §1

[3] = Infusion of 1-12 g/sq. m., Leyva et al, 1984; cited from earlier work
S. flexneri APV00906 = assay: microbe, parasite or virus in culture; type: cell-based; settings: Shigella flexneri, APV00906
Description: as §1

[4] = EN0392, Combination 1 AZT+trimethoprim+uridine, Table 16
[5] = EN0392, combination AZT+trimethoprim+uridine, Table 6
[6] = EN0392, combination FdUrd+trimethoprim+uridine, Table 8
[7] = Combination 1 AZT+trimethoprim+uridine, Table 16
[8] = combination AZT+trimethoprim+uridine, Table 6
[9] = combination FdUrd+trimethoprim+uridine, Table 8
[10] = EN0422, Combination 1 AZT+trimethoprim+uridine, Table 16
[11] = EN0422, Combination 2 AZT+trimethoprim+uridine+thymidine, Table 16
[12] = EN0422, combination AZT+trimethoprim+uridine, Table 6
[13] = EN0422, combination FdUrd+trimethoprim+uridine, Table 8
[14] = EN0422, combination didanosine+trimethoprim+uridine, Table 10
[15] = Pseudomonas aeruginosa, EN004, Combination 1 AZT+trimethoprim+uridine, Table 16, read-out: MIC
[16] = Pseudomonas aeruginosa, EN004, Combination 2 AZT+trimethoprim+uridine+thymidine, Table 16, read-out: MIC
[17] = Pseudomonas aeruginosa, EN004, combination AZT+trimethoprim+uridine, Table 6, read-out: MIC
[18] = Pseudomonas aeruginosa, EN004, combination FdUrd+trimethoprim+uridine, Table 8, read-out: MIC
[19] = Pseudomonas aeruginosa, EN004, combination didanosine+trimethoprim+uridine, Table 10, read-out: MIC
[20] = combination AZT+trimethoprim+uridine, Table 17B
[21] = combination FdUrd+trimethoprim+uridine, Table 19
[22] = combination didanosine+trimethoprim+uridine, Table 20
[23] = Trimethoprim 30 mg/kg, per mouse

Q: Which MIC (K. pneumoniae EN0436; EN0436, combination FdUrd+trimethoprim+uridine, Table 19) does the source give for `COc1cc(Cc2cnc(N)nc2N)cc(OC)c1OC` [Trimethoprim, trimethoprim] here?
A: 0.5 µg/mL

Q: And the MIC (K. pneumoniae EN0436; EN0436, combination didanosine+trimethoprim+uridine, Table 20)?
A: 0.5 µg/mL

Q: What about the MIC [1] of the same compound?
A: 0.125 µg/mL

Q: And the MIC (K. pneumoniae EN0437; EN0437, combination AZT+trimethoprim+uridine, Table 17B)?
A: > 4 µg/mL

Q: What about the MIC (K. pneumoniae EN0437; EN0437, combination FdUrd+trimethoprim+uridine, Table 19) of the same compound?
A: > 8 µg/mL

Q: What about the MIC (K. pneumoniae EN0437; EN0437, combination didanosine+trimethoprim+uridine, Table 20) of the same compound?
A: > 8 µg/mL

Q: What about the MIC (K. pneumoniae EN010; EN010, Combination 2 AZT+trimethoprim+uridine+thymidine, Table 16) of the same compound?
A: 1 µg/mL

Q: And the MIC (K. pneumoniae EN010; EN010, combination AZT+trimethoprim+uridine, Table 6)?
A: 0.5 µg/mL

Q: What about the MIC (K. pneumoniae EN010; EN010, combination FdUrd+trimethoprim+uridine, Table 8) of the same compound?
A: 1 µg/mL

Q: What about the MIC (K. pneumoniae EN010; EN010, combination didanosine+trimethoprim+uridine, Table 10) of the same compound?
A: 1 µg/mL

Q: What about the MIC (K. oxytoca EN0392; [4]) of the same compound?
A: 0.064 µg/mL

Q: What about the MIC (K. oxytoca EN0392; EN0392, Combination 2 AZT+trimethoprim+uridine+thymidine, Table 16) of the same compound?
A: 0.5 µg/mL

Q: What about the MIC (K. oxytoca EN0392; [5]) of the same compound?
A: 0.06 µg/mL

Q: And the MIC (K. oxytoca EN0392; [6])?
A: 0.25 µg/mL

Q: And the MIC (K. oxytoca EN0392; EN0392, combination didanosine+trimethoprim+uridine, Table 10)?
A: 0.5 µg/mL

Q: What about the MIC (K. pneumoniae EN0262; Klebsiella pneumoniae, EN0262, combination AZT+trimethoprim+uridine, Table 17B and 18, read-out: MIC) of the same compound?
A: 0.5 µg/mL

Q: What about the MIC (K. pneumoniae EN0262; Klebsiella pneumoniae, EN0262, combination FdUrd+trimethoprim+uridine, Table 19 and 21, read-out: MIC) of the same compound?
A: 4 µg/mL

Q: What about the MIC (K. pneumoniae EN0262; Klebsiella pneumoniae, EN0262, combination didanosine+trimethoprim+uridine, Table 20 and 21, read-out: MIC) of the same compound?
A: 4 µg/mL

Q: What about the MIC (K. pneumoniae EN0262; combination AZT+trimethoprim+uridine, Table 17B and 18) of the same compound?
A: 0.5 µg/mL

Q: What about the MIC (K. pneumoniae EN0262; combination FdUrd+trimethoprim+uridine, Table 19 and 21) of the same compound?
A: 4 µg/mL

Q: What about the MIC (K. pneumoniae EN0262; combination didanosine+trimethoprim+uridine, Table 20 and 21) of the same compound?
A: 4 µg/mL

Q: And the MIC (K. pneumoniae EN0233; EN0233, combination FdUrd+trimethoprim+uridine, Table 19)?
A: 1 µg/mL

Q: What about the MIC (K. pneumoniae EN0233; EN0233, combination didanosine+trimethoprim+uridine, Table 20) of the same compound?
A: 2 µg/mL

Q: What about the MIC (E. coli strain no 2; NO2, read-out: MIC FdUrd/Trimethoprim (1:2), uridine 10 μg/ml, thymidine 10 μM) of the same compound?
A: > 40 µg/mL

Q: What about the MIC (E. coli strain no 2; NO2, read-out: MIC FdUrd/Trimethoprim (1:2), uridine 100 μg/ml, thymidine 10 μM) of the same compound?
A: > 40 µg/mL

Q: And the MIC (S. typhimurium EN0466; [7])?
A: 0.064 µg/mL

Q: And the MIC (S. typhimurium EN0466; Combination 2 AZT+trimethoprim+uridine+thymidine, Table 16)?
A: 0.5 µg/mL

Q: What about the MIC (S. typhimurium EN0466; [8]) of the same compound?
A: 0.06 µg/mL

Q: And the MIC (S. typhimurium EN0466; [9])?
A: 0.25 µg/mL

Q: And the MIC (S. typhimurium EN0466; combination didanosine+trimethoprim+uridine, Table 10)?
A: 0.5 µg/mL

Q: And the MIC (P. aeruginosa EN0422; [10])?
A: > 8 µg/mL

Q: And the MIC (P. aeruginosa EN0422; [11])?
A: > 4 µg/mL

Q: And the MIC (P. aeruginosa EN0422; [12])?
A: > 4 µg/mL

Q: What about the MIC (P. aeruginosa EN0422; [13]) of the same compound?
A: > 8 µg/mL

Q: What about the MIC (P. aeruginosa EN0422; [14]) of the same compound?
A: > 8 µg/mL

Q: What about the MIC (P. aeruginosa EN004; [15]) of the same compound?
A: > 4 µg/mL

Q: What about the MIC (P. aeruginosa EN004; [16]) of the same compound?
A: > 4 µg/mL

Q: What about the MIC (P. aeruginosa EN004; [17]) of the same compound?
A: > 4 µg/mL

Q: And the MIC (P. aeruginosa EN004; [18])?
A: > 8 µg/mL

Q: What about the MIC (P. aeruginosa EN004; [19]) of the same compound?
A: > 8 µg/mL

Q: What about the MIC (P. aeruginosa EN004; [20]) of the same compound?
A: >4 µg/mL

Q: And the MIC (P. aeruginosa EN004; [21])?
A: >8 µg/mL

Q: And the MIC (P. aeruginosa EN004; [22])?
A: >8 µg/mL

Q: What about the MIC (E. coli EN0138) of the same compound?
A: 0.016 µg/mL

Q: What about the MIC (K. pneumoniae EN0142) of the same compound?
A: > 8 µg/mL

Q: And the MIC (K. pneumoniae EN0143; EN0143, combination AZT+trimethoprim+uridine, Table 17B)?
A: > 4 µg/mL

Q: What about the MIC (K. pneumoniae EN0143; EN0143, combination FdUrd+trimethoprim+uridine, Table 19) of the same compound?
A: > 8 µg/mL

Q: And the MIC (K. pneumoniae EN0143; EN0143, combination didanosine+trimethoprim+uridine, Table 20)?
A: > 8 µg/mL

Q: And the “CFU/ml PF” value (E. coli; [23])?
A: 9.50E+03 CFU/ml and 1.60E+06 CFU/ml and 3.25E+05 CFU/ml and 4.75E+05 CFU/ml

Q: And the “log CFU/ml PF” value (E. coli; [23])?
A: 3.98 log CFU/ml and 6.20 log CFU/ml and 5.51 log CFU/ml and 5.68 log CFU/ml

Q: What about the score at sampling (E. coli; [23]) of the same compound?
A: 1

Q: What about the “inhibition in mice infected with E. coli (in words)” value (E. coli; murine peritonitis model) of the same compound?
A: slight inhibition

Q: Which MIC ([2]; ATTC43504, combination AZT+trimethoprim+uridine) does the source give for `O=c1ccn([C@@H]2O[C@H](CO)[C@@H](O)[C@H]2O)c(=O)[nH]1` [Uridine, uridine] here?
A: 13 µg/mL

Q: What about the MIC ([2]; ATTC43504, combination FdUrd+trimethoprim+uridine) of the same compound?
A: 6 µg/mL

Q: And the plasma levels [3]?
A: up to 500 μg/ml

Q: And the MIC (K. oxytoca EN0392; [4])?
A: 6.4 µg/mL

Q: And the MIC (K. oxytoca EN0392; [5])?
A: 16 µg/mL

Q: What about the MIC (K. oxytoca EN0392; [6]) of the same compound?
A: 13 µg/mL

Q: And the MIC (S. typhimurium EN0466; [7])?
A: 6.4 µg/mL

Q: And the MIC (S. typhimurium EN0466; [8])?
A: 16 µg/mL

Q: And the MIC (S. typhimurium EN0466; [9])?
A: 13 µg/mL

Q: And the MIC (P. aeruginosa EN0422; [10])?
A: > 400 µg/mL

Q: And the MIC (P. aeruginosa EN0422; [11])?
A: > 400 µg/mL

Q: And the MIC (P. aeruginosa EN0422; [12])?
A: > 1000 µg/mL

Q: What about the MIC (P. aeruginosa EN0422; [13]) of the same compound?
A: > 400 µg/mL

Q: And the MIC (P. aeruginosa EN0422; [14])?
A: > 400 µg/mL

Q: What about the MIC (S. flexneri APV00906) of the same compound?
A: > 400 µg/mL

Q: And the MIC (P. aeruginosa EN004; [15])?
A: > 400 µg/mL

Q: What about the MIC (P. aeruginosa EN004; [16]) of the same compound?
A: > 400 µg/mL

Q: And the MIC (P. aeruginosa EN004; [17])?
A: > 1000 µg/mL

Q: And the MIC (P. aeruginosa EN004; [18])?
A: > 400 µg/mL

Q: What about the MIC (P. aeruginosa EN004; [19]) of the same compound?
A: > 400 µg/mL

Q: What about the MIC (P. aeruginosa EN004; [20]) of the same compound?
A: >400 µg/mL

Q: And the MIC (P. aeruginosa EN004; [21])?
A: >400 µg/mL

Q: What about the MIC (P. aeruginosa EN004; [22]) of the same compound?
A: >400 µg/mL

Q: What about the MIC (K. pneumoniae EN0142) of the same compound?
A: > 400 µg/mL
